According to PMC3093627 (Research in Pharmaceutical Sciences, 2010):

Experiments:
[1] = test system: morphine brain distribution; conditions: rats; cited from earlier work
[2] = test system: MDCK II cells; conditions: probenecid 10 μM, d-glucose 5 μM, digoxin 5 μM, M6G 100 μg/ml, cyclosporin 10 μM
Protocol: Madin-Darby Canine Kidney epithelial cell lines (MDCK-II, passages 3-7), and MDCK I-MDR (MDCK-PGP or MDCK WT, passages)([6]–[10]) were purchased from Borst- Amsterdam. MDCK-PGP is a MDCK-II recombinant clone containing the human MDR-I PGP gene.
When cell growth and cell number were sufficient, the cells were transferred into the transwells. The number of cells in each well was calculated using Eq. 1
In 48/case plates, with area of 0.3318 Cm^2for each insert, the required cells per insert were 13,272 cells. This number of cells was dispensed in 0.25 ml media for each insert and the cells suspension was poured into apical chambers of the inserts. Each treatment group comprised 4 replicates. One ml of cell free media was added to basal chambers. […]
After completing the incubation period, TEER of each Transwell inserts was measured using an EVOM epithelial voltammeter (WIP, Sarasota, FL) and the Transwell inserts were distributed evenly between treatment groups, based on the TEER measurement. […] The corrected cumulative concentrations of drug were determined based on the amount of removed and added buffer in each series of wells at each interval and the corrected concentrations were used for calculating the apparent permeability coefficient (ρ) according to the Eq. 2: […]

| SMILES | Reduction of morphine brain distribution [1] [%] | Effect on morphine permeability via MDCK II cells [2] |
| --- | --- | --- |
| COc1cc2c(cc1OC)CN(CCc1ccc(NC(=O)c3cccc4c(=O)c5cccc(OC)c5[nH]c34)cc1)CC2 [GF120918] | 42 |  |
| CN1CC[C@]23c4c5ccc(O)c4O[C@H]2[C@@H](O[C@@H]2O[C@H](C(=O)O)[C@@H](O)[C@H](O)[C@H]2O)C=C[C@H]3[C@H]1C5 [M6G, morphine 6 glucoronide] |  | no significant effects |
| C[C@H]1O[C@@H](O[C@H]2[C@@H](O)C[C@H](O[C@H]3[C@@H](O)C[C@H](O[C@H]4CC[C@@]5(C)[C@H](CC[C@@H]6[C@@H]5C[C@@H](O)[C@]5(C)[C@@H](C7=CC(=O)OC7)CC[C@]65O)C4)O[C@@H]3C)O[C@@H]2C)C[C@H](O)[C@@H]1O [digoxin] |  | significant fall |
